Experiments:
[1] = Diffusion of a fluorescent probe in swollen gelatin gel by FRAP; format: physicochemical
Excerpt: To assess the stability of DTPA[Gd(III)] in the gelatin coating, the diffusion of a fluorescence probe in gelatin was studied by the technique of fluorescence recovery after photobleaching (FRAP). The instrument and data analysis scheme are described in Kim, S. H. and Yu, H., J. Phys. Chem. 1992, 96, 4034, which is hereby fully incorporated by reference. Fluorescein was used as the fluorescence probe due, in part, to its molecular size being roughly the same as that of DTPA[Gd(III)].
The focus of the study was to examine the possible retardation effects of gelatin concentration and cross-link density on the diffusion, which was determined at room temperature, i.e., below the gel point of gelatin. The diffusion of fluorescein probe slows down with the increase of gelatin concentration. The diffusion coefficient decreases from 1.5×10-10 to 9×10-12 m2s−1 when the concentration of gelatin increases from 9% to 40%. […] Accordingly, the probe diffusion is more likely controlled by the concentration of gelatin rather than the cross-link density. On the other hand, the cross-link density may determine the swelling ratio of gelatin, i.e., the concentration of gelatin in aqueous solution. […]

[2] = MR visibility test of the functional gelatin coating on PE rod in saline and yogurt (Example 14); conditions: after soaking in water for 12 hours
Experimental: Samples having the above formulations were transferred to a glass tube and kept in a water bath at 35° C. A bare PE rod (5 cm in length) was then dipped into the solution, and then removed. The rod was then cooled to room temperature to allow chill-setting of the gelatin solution and to form the coating on the rod surface. The same procedure was repeated to overcoat additional layers of gel. The final dry thickness of gel-coating was about 60 μm.
The gelatin coatings were dried in air while being chemically cross-linked by BVSM. The dried and cross-linked samples were then soaked in distilled water for 12 hours. Soaking each sample in distilled water may remove the DTPA[Gd(III)] that was not physically or chemically constrained by the cross-linked network of gelatin overcoat. Because the DTPA[Gd(III)] complexes were not chemically linked to the gelatin chains, most of them would be expected to diffuse out of the coating when soaked in water, whereas some of DTPA[Gd(III)] may be confined by the crystal domains in gelatin or by hydrogen bonding between gelatin chains and DTPA. In any event, after the soaking, the gelatin coating was dried again in air before MRI test.
The MR visibility of the samples prepared as outlined above, was tested in two media: saline and yogurt. […]

## O=C(O)CN(CCN(CC(=O)O)CC(=O)O)CCN(CC(=O)O)CC(=O)O [DTPA, diethylenetriaminepentaacetic acid]
[1]; coating thickness 60 μm, diffusion coefficient 9×10-12 m2s−1
  Time to diffuse out of the gelatin coating: about 67 seconds

## O=C([O-])CN(CCN(CC(=O)[O-])CC(=O)O)CCN(CC(=O)[O-])CC(=O)O.[Gd+3] [DTPA[Gd(III)], gadolinium-diethylene triamine pentaacetic acid]
[2]
  Retention in the gelatin coating: some fraction of DTPA[Gd(III)] remained in the gel

## O=C1OC2(c3ccc(O)cc3Oc3cc(O)ccc32)c2ccccc21 [fluorescein]
[1]; films soaked in water for 18 hours, including non-cross-linked films
  Fluorescence signal remaining in gelatin films: still fluorescence signal
